Test results reported in ChEMBL document CHEMBL6177939, “The role of silicon in drug discovery: a review” (RSC Med Chem, 2024).
≈ marks a conversion by molar mass, not a printed value. Values belong to the compound of their own block, whether it stands above or below them.

Tests used:
[1] = Acute toxicity in ip dosed Sprague-Dawley rat assessed as lethal dose; assay type: organism-based; settings: in vivo
[2] = In vivo inhibition of AChE activity in Sprague-Dawley rat brain assessed as effective dose; assay type: functional
Acetylcholinesterase = Acetylcholinesterase (Homo sapiens, UniProt P22303); assay: Binding affinity to AChE (unknown origin) using acetylthiocholine iodide as substrate assessed as inhibition constant by Ellman's method
Interstitial collagenase = Interstitial collagenase (Homo sapiens, UniProt P03956); assay: Inhibition of MMP-1 (unknown origin)
[3] = Inhibition of soya bean lipoxygenase; design: species or system Glycine max
Mus musculus = assay: Antiinflammatory activity against carrageenin-induced paw edema AKR mouse model assessed as inhibition of CPE at 0.01 micromol/kg, ip relative to control; assay type: functional; design: scale not given: the % may be the effect or the level left; settings: dose 0.01 µmol/kg
Bacillus subtilis [4] = assay: Antibacterial activity against Bacillus subtilis B-407 (all Russian collections of micro-organism) assessed as reduction in bacterial growth incubated for 24 hrs by broth micro-dilution method; assay type: functional
Enterococcus durans [5] = assay: Antibacterial activity against Enterococcus durans B-603 (all Russian collections of micro-organism) assessed as reduction in bacterial growth incubated for 24 hrs by broth micro-dilution method; assay type: functional
Plasmodium falciparum [6] = assay: Antimalarial activity against chloroquine-sensitive Plasmodium falciparum NF54 assessed as reduction in parasite growth; assay type: functional, organism-based
Plasmodium falciparum [7] = assay: Antimalarial activity against […] Plasmodium falciparum Dd2 assessed as reduction in parasite growth; assay type: functional, organism-based
[8] = Antiproliferative activity against human WHCO1 cells assessed as reduction in cell viability incubated for 48 hrs by MTT assay; assay type: functional, cell-based; settings: WHCO1, 48 h
HCT-8 = assay: Cytotoxicity against human HCT-8 cells assessed as inhibition of cell growth at 5 ug/ml relative to control; assay type: functional
Bel-7402 = assay: Cytotoxicity against human Bel-7402 cells assessed as inhibition of cell growth at 5 ug/ml relative to control; assay type: functional
Tetranychus cinnabarinus = assay: Toxicity in Tetranychus cinnabarinus assessed as lethal dose; assay type: organism-based
Escherichia coli [9] = assay: Antibacterial activity against Escherichia coli B-1238 (all Russian collections of micro-organism) assessed as reduction in bacterial growth by broth micro-dilution method; assay type: functional
[10] = target: Human immunodeficiency virus type 1 reverse transcriptase (Human immunodeficiency virus 1, UniProt Q72547); assay: Inhibition of recombinant HIV-1 reverse transcriptase
[11] = system: Human immunodeficiency virus 1; assay: Antiviral activity against HIV-1 IIIB infected in human MT2 cells assessed as reduction in virus-induced cytopathic effect incubated for 4 days by spectrophotometric based MTT assay; assay type: functional, organism-based; settings: Human immunodeficiency virus 1, IIIB, MT2, 96 h
Aspergillus fumigatus = assay: Antifungal activity against Aspergillus fumigatus ATCC 66567 assessed as reduction in fungal growth; assay type: functional
Fusarium solani = assay: Antifungal activity against Fusarium solani ATCC 20327 assessed as reduction in fungal growth; assay type: functional
Penicillium chrysogenum = assay: Antifungal activity against Penicillium chrysogenum ATCC 20044 assessed as reduction in fungal growth; assay type: functional
Bacillus subtilis [12] = assay: Antibacterial activity against Bacillus subtilis; assay type: functional
Escherichia coli [13] = assay: Antibacterial activity against Escherichia coli; assay type: functional
Pseudomonas aeruginosa = assay: Antibacterial activity against Pseudomonas aeruginosa PAO1 assessed as reduction in bacterial growth by broth micro-dilution method; assay type: functional
[14] = system: Staphylococcus epidermidis; assay: Antibacterial activity against methicillin-resistant Staphylococcus epidermidis 3382 assessed as reduction in bacterial cell growth by broth micro-dilution method; assay type: functional
Staphylococcus aureus = assay: Antibacterial activity against methicillin-resistant Staphylococcus aureus assessed as reduction in bacterial cell growth by broth micro-dilution method; assay type: functional
Enterococcus durans [15] = assay: Antibacterial activity against Enterococcus durans B-603 (all Russian collections of micro-organism) assessed as reduction in bacterial growth by broth micro-dilution method; assay type: functional
Bacillus subtilis [16] = assay: Antibacterial activity against Bacillus subtilis B-407 (all Russian collections of micro-organism) assessed as reduction in bacterial growth by broth micro-dilution method; assay type: functional
Trichomonas vaginalis = assay: Antiparasitic activity against Trichomonas vaginalis assessed as reduction in parasite growth measured for 24 hrs by MTT assay; assay type: functional, organism-based
Giardia intestinalis = assay: Antiparasitic activity against Giardia intestinalis assessed as reduction in parasite growth incubated for 24 hrs by MTT assay; assay type: functional, organism-based; settings: Giardia duodenalis
[17] = system: Human immunodeficiency virus 1; assay: Antiviral activity against HIV-1 infected in human MT4 cells; assay type: functional, organism-based; settings: Human immunodeficiency virus 1, MT4
[18] = target: T1, Angiotensin-converting enzyme (Homo sapiens, UniProt P12821); assay: Binding affinity to ACE (unknown origin) assessed as inhibition constant
[19] = target: T1, Angiotensin-converting enzyme; assay: Inhibition of ACE (unknown origin) using Hip-His-Leu-OH peptide as substrate by fluorimetric analysis

T1 sequence (P12821 whole entry): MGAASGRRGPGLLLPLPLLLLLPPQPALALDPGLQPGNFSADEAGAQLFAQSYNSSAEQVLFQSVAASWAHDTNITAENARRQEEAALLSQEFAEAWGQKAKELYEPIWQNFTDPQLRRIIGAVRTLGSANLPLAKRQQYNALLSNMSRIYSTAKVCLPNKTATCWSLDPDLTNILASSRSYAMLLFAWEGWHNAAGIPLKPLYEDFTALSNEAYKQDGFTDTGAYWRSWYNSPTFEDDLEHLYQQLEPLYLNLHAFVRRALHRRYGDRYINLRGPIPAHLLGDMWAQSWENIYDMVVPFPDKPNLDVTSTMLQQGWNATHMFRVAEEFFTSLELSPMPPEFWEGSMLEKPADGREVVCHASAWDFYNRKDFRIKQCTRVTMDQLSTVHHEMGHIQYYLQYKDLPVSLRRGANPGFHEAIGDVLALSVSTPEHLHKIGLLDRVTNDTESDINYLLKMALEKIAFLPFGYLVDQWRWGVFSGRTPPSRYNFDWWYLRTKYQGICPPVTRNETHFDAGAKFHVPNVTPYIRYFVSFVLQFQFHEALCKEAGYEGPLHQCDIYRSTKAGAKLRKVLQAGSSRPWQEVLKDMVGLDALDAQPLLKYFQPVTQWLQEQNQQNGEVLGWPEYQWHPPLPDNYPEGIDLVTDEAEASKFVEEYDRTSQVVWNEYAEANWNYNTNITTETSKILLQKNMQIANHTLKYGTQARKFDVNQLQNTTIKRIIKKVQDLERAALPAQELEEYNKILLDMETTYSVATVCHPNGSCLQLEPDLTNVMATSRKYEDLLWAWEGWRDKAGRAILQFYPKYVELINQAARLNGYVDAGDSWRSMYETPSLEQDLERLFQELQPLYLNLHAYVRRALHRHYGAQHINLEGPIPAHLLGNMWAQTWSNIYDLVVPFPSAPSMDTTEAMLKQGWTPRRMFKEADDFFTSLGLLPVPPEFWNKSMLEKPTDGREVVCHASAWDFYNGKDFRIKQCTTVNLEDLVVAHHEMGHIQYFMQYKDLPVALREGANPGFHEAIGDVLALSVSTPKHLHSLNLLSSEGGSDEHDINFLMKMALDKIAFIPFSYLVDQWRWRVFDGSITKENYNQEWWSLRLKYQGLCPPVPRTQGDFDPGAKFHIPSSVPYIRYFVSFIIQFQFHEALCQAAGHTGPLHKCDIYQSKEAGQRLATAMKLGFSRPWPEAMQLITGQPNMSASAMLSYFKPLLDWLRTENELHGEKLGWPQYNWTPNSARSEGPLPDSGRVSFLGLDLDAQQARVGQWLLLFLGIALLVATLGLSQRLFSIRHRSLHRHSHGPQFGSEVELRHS
Sequence of Interstitial collagenase (P03956 whole entry): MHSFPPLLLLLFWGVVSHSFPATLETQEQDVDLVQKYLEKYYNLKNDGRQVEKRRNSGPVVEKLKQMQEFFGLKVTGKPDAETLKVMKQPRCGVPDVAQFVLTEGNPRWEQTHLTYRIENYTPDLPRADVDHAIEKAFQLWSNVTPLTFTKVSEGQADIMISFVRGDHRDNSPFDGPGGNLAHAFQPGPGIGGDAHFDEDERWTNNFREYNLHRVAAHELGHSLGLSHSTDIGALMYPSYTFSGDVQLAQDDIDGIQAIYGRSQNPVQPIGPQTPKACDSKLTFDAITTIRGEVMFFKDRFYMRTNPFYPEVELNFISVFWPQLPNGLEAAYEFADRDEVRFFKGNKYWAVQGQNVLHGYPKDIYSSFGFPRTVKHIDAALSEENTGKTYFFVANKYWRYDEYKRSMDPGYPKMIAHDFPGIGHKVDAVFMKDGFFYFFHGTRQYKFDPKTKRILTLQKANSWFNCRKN
Sequence of Acetylcholinesterase (P22303 whole entry): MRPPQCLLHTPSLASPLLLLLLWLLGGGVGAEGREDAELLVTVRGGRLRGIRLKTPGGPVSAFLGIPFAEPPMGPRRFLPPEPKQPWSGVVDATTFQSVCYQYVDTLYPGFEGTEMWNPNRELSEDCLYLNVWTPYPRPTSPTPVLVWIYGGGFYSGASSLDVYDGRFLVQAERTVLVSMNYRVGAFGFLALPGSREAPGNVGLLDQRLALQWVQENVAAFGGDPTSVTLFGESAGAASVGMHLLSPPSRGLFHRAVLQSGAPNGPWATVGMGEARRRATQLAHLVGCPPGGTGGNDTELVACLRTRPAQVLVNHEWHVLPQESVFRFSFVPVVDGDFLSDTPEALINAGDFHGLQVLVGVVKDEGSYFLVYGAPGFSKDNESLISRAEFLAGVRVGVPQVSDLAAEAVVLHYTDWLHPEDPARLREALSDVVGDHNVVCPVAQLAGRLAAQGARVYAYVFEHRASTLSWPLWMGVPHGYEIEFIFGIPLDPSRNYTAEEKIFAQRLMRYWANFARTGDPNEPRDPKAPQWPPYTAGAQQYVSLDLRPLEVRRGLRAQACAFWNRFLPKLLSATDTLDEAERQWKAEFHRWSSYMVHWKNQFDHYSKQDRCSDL

Compound: C[Si](C)(C)c1cccc(C(=O)C(F)(F)F)c1
- LD50 [1]: 180 mg/kg
- ED50 [2]: 2.5 mg/kg
- Ki (Acetylcholinesterase): 0.047 nM

Compound: C[Si](C)(C)CCC[n+]1ccsc1N.[I-]
- IC50 [3]: 10 nM
- Activity (Mus musculus): 55%

Compound: C[Si](C)(C)CNc1ccnc2cc(Cl)ccc12
- IC50 (Plasmodium falciparum [6]): 248 nM
- IC50 (Plasmodium falciparum [7]): 525 nM
- IC50 [8]: 4410 nM

Compound: CC(C)OP(=O)(NCCC[Si-]123OCC[N+]1(CCO2)CCO3)OCCn1c(=O)c(F)cn(C2CCCO2)c1=O (configuration not stated)
- inhibition at 5 µg/mL (HCT-8): 29.3%
- inhibition at 5 µg/mL (Bel-7402): 29.3%

Compound: C/C(=C(\OC(=O)C(C)(C)C)c1c(C)c(C)nn1C)c1ccc([Si](C)(C)C)cc1
- LC50 (Tetranychus cinnabarinus): 0.062 ng/mL (≈ 0.000156 µM)

Compound: COc1ccc(O)c(/C=N/CCC[Si-]234OCC[N+]2(CCO3)CCO4)c1 (configuration not stated)
- MIC (Aspergillus fumigatus): 0.08 µg/mL (≈ 0.218 µM)
- MIC (Fusarium solani): 0.08 µg/mL (≈ 0.218 µM)
- MIC (Penicillium chrysogenum): 0.08 µg/mL (≈ 0.218 µM)

Compound: Fc1ccc(/N=C/c2c(OCc3cn(CCC[Si-]456OCC[N+]4(CCO5)CCO6)nn3)ccc3ccccc23)cc1 (configuration not stated)
- MIC (Pseudomonas aeruginosa): 13.2 µg/mL (≈ 23.6 µM)
- MIC [14]: 3.25 µg/mL (≈ 5.79 µM)
- MIC (Staphylococcus aureus): 3.25 µg/mL (≈ 5.79 µM)

Compound: CC1C[N+]23CC(C)O[Si-]2(CCC/N=C/c2ccc4c5c6c(ccc25)C=CCC6=CC4)(O1)OC(C)C3 (configuration not stated)
- IC50 (Trichomonas vaginalis): 1750 nM
- IC50 (Giardia intestinalis): 53300 nM

Second part, led by results:

- IC50 (Interstitial collagenase): ~41 nM
Compound: C[Si](C)(C)n1c(=S)c(=P(c2ccccc2)(c2ccccc2)c2ccccc2)/c1=N/c1ccccc1

- MIC (Bacillus subtilis [4]): 6.2 µg/mL (≈ 14.8 µM)
- MIC (Enterococcus durans [5]): 12.5 µg/mL (≈ 29.8 µM)
Compound: COc1ccc(-c2cc(CNCCC[Si-]345OCC[N+]3(CCO4)CCO5)on2)cc1 (configuration not stated)

- MIC (Escherichia coli [9]): 62.5 µg/mL (≈ 165 µM)
Compound: O=C(NCCC[Si-]123OCC[N+]1(CCO2)CCO3)c1cc2c([nH]1)CCCC2 (configuration not stated)

- IC50 [10]: 6000 nM
Compound: C[Si](O)(O[Si](C)(CCCn1cnc2c(N)ncnc21)c1ccccc1)c1ccccc1 (configuration not stated)
- IC50 [11]: 10000 nM

- MIC (Bacillus subtilis [12]): 0.8 µg/mL
- MIC (Escherichia coli [13]): 0.765 µg/mL
Compound: CCN(CC)CC.S=C(S)NCCC[Si-]123OCC[N+]1(CCO2)CCO3 (configuration not stated)

- MIC (Enterococcus durans [15]): 3.1 µg/mL (≈ 9.53 µM)
- MIC (Bacillus subtilis [16]): 6.2 µg/mL (≈ 19.1 µM)
Compound: O=C(NCCC[Si-]123OCC[N+]1(CCO2)CCO3)c1ccc[nH]1 (configuration not stated)

- EC50 [17]: 200 nM
Compound: Cc1cccc(C(O)c2c(C(C)C)c(=O)[nH]c(=O)n2COCc2ccccc2)c1 (configuration not stated)

- Ki [18]: 10 nM
Compound: CC(C)C[C@H](C[Si](O)(O)CNC(=O)CCc1ccccc1)C(=O)NC(=O)N[C@@H](CC(C)C)C(=O)O

- IC50 [19]: 43 nM
Compound: CC(CS)C(=O)N1C[Si](C)(C)C[C@H]1C(=O)O (mixture of isomers)
